# In paper PMC8175350, “Drug repurposing screens identify chemical entities for the development of COVID-19 interventions” (Nature Communications, 2021):
# Counter-ions that a name gives are not always drawn. Like-named read-outs stand apart in the source and are kept apart here.
# Legend:
# [1] = test system: SARS-CoV-2; experiment: microbe, parasite or virus in culture; format: cell-based; settings: for Emax: Severe acute respiratory syndrome coronavirus 2, HeLa-ACE2, 24 h, read-out: HeLa-ACE2 CoV-2 Sinf Average
# [2] = Uninfected HeLa-ACE2 24 h live/dead cytotoxicity counter screen; format: cell-based, human; settings: human, uninfected HeLa-ACE2 cells
# [3] = test system: HeLa-ACE2 cells; experiment: as above; format: cell-based, human
# [4] = test system: SARS-CoV-2; experiment: microbe, parasite or virus in culture; format: cell-based; settings: for Emax: Severe acute respiratory syndrome coronavirus 2, Calu-3, 48 h, read-out: Calu-3 CoV-2 Sinf Average
# [5] = test system: HeLa-ACE2 cells; experiment: cells; settings: Homo sapiens; for Emax: HeLa-ACE2, 24 h, read-out: HeLa-ACE2 cell count Sinf Average
# [6] = test system: Calu-3 cells; experiment: cells; settings: Homo sapiens; for Emax: Calu-3, 48 h, read-out: Calu-3 cell count Sinf Average
# [7] = cited from earlier work
# [8] = Uninfected Calu-3 48 h Cell-Titer Glo cytotoxicity counter screen; settings: human, uninfected Calu-3 cells
# [9] = test system: Calu-3 cells; experiment: as above
# [10] = test system: SARS-CoV-2; format: cell-based
# [11] = in vitro; settings: human
# [12] = test system: SARS-CoV-2; experiment: microbe, parasite or virus in culture; format: cell-based; settings: for Emax: Severe acute respiratory syndrome coronavirus 2, HeLa-ACE2, 10 h, curve plateau at infinite concentration, read-out: HeLa-ACE2 TOA CoV-2 Sinf Average; for EC50: read-out: HeLa-ACE2 TOA CoV-2 EC50 GeoMean
# [13] = test system: HeLa-ACE2 cells; experiment: Total cell count in the HeLa-ACE2 TOA assay; format: cell-based; settings: Homo sapiens
# Text: Supplement 41467_2021_23328_MOESM3_ESM.xlsx, sheet "Table S1" | column: HeLa-ACE2 TOA cell count
# [14] = HepG2 72 h CellTiter-Glo cytotoxicity; settings: human, HepG2 cells
# [15] = test system: HepG2; experiment: HepG2 72 h CellTiter-Glo cytotoxicity; settings: 72 h
# [16] = HEK293T 72 h CellTiter-Glo cytotoxicity; settings: human, HEK293T cells
# [17] = test system: HEK293T; experiment: HEK293T 72 h CellTiter-Glo cytotoxicity; settings: 72 h
# [18] = test system: HeLa-ACE2 cells; experiment: cells; format: cell-based, human; settings: Homo sapiens, HeLa-ACE2; read-out: HeLa-ACE2 TOA cell count EC50 GeoMean
# [19] = curve-fit effect at infinite concentration, average
# [20] = Severe acute respiratory syndrome coronavirus 2, HeLa-ACE2, reconfirmed hits, read-out: HeLa-ACE2 SARS-CoV-2 EC50
# [21] = Severe acute respiratory syndrome coronavirus 2, HeLa-ACE2, unrounded geometric mean, read-out: HeLa-ACE2 CoV-2 EC50 GeoMean
# [22] = reconfirmed hits, read-out: HeLa-ACE2 Uninf. cells CC50
# [23] = unrounded geometric mean, read-out: HeLa-ACE2 uninfected cytotoxicity CC50 GeoMean
# [24] = Severe acute respiratory syndrome coronavirus 2, Calu-3, reconfirmed hits, read-out: Calu-3 SARS-CoV-2 EC50
# [25] = Severe acute respiratory syndrome coronavirus 2, Calu-3, unrounded geometric mean, read-out: Calu-3 CoV-2 EC50 GeoMean
# [26] = HeLa-ACE2, read-out: HeLa-ACE2 cell count EC50 GeoMean, unrounded geometric mean
# [27] = Calu-3, read-out: Calu-3 cell count EC50 GeoMean, unrounded geometric mean
# [28] = read-out: Approx. Cmax, human, oral, ref [36],[37],[42],[43] as in column Refs.
# [29] = Calu-3 Uninf. cells CC50 (µM), reconfirmed hits
# [30] = Calu-3 uninfected cytotoxicity CC50 GeoMean, unrounded geometric mean
# [31] = curve plateau at infinite concentration
# [32] = detail block, read-out: HeLa-ACE2 uninfected cytotoxicity CC50 GeoMean
# [33] = Severe acute respiratory syndrome coronavirus 2, Calu-3, detail block, read-out: Calu-3 CoV-2 EC50 GeoMean
# [34] = Severe acute respiratory syndrome coronavirus 2, HeLa-ACE2, detail block
# [35] = HeLa-ACE2, read-out: HeLa-ACE2 cell count EC50 GeoMean, detail block
# [36] = Calu-3, read-out: Calu-3 cell count EC50 GeoMean, detail block
# [37] = Calu-3 uninfected cytotoxicity CC50 GeoMean, detail block
SMILES,"EC50 [1, 20] [µM]","EC50 [1, 21] [µM]","CC50 at 24 h [2, 22] [µM]","CC50 at 24 h [2, 23] [µM]","Emax [4, 19] [%]","EC50 [4, 24] [µM]","EC50 [4, 25] [µM]",Emax [5] [%],"EC50 [5, 26] [µM]",Emax [6] [%],"EC50 [6, 27] [µM]","Approx. t1/2 ([7]; human, ref [33]-[49]) [h]","Emax [1, 31] [%]","HeLa-ACE2 uninfected cytotoxicity Sinf Average [3, 31] [%]",Emax [12] [%],CC50 at 72 h [14] [µM],HepG2 72-hour cytotoxicity Sinf Average [15] [%],CC50 at 72 h [16] [µM],HEK293T 72-hour cytotoxicty Sinf Average [17] [%],"Calu-3 uninfected cytotoxicity Sinf Average [9, 31] [%]",further results
COC(=O)[C@]12CCC(C)(C)C[C@H]1[C@H]1C(=O)C=C3[C@@]4(C)C=C(C#N)C(=O)C(C)(C)[C@@H]4CC[C@@]3(C)[C@]1(C)CC2 [Bardoxolone methyl],0.541,0.541,3.1,3.1,96,0.079,0.0794,101,1.26,41,0.116,39,–,–,–,–,–,–,–,–,"Emax [1, 19]: 100%; CC50 at 24 h ([2]; uninfected cells, Fig. 2b group, read-out: HeLa-ACE2 CC50): ≤ 3 µM; HeLa-ACE2 uninfected cytotoxicity Sinf Average [3, 19]: -101%; Cmax [7, 28]: 50 nM; CC50 at 48 h [8, 29]: 3.06 µM; CC50 at 48 h [8, 30]: 3.06 µM; Calu-3 uninfected cytotoxicity Sinf Average [9, 19]: -97%"
COC(=O)C1=C(C)NC(C)=C(C(=O)OCCN2CCN(C(c3ccccc3)c3ccccc3)CC2)C1c1cccc([N+](=O)[O-])c1 (centres unmarked) [Manidipine],6.89,–,> 17.1,–,–,5.48,–,–,–,–,–,3,–,–,–,–,–,–,–,–,"Synergy score with remdesivir (δ) ([10]; HeLa-ACE2): −4.73; CC50 at 48 h ([11]; Calu-3 Uninf. cells CC50 (µM)): > 30 µM; Cmax ([7]; human, in vivo, po): 10 nM"
"CC(C)(C)Cn1c(N)nc2ccc(-c3[nH]c(C(C)(C)C)nc3-c3ccc(F)cc3)nc21 [Ralimetinib mesylate/LY2228820, Ralimetinib mesylate]",1.87,–,27.4,–,–,3.83,–,-60,–,95,–,190,100,-99,100,19.8,-100,20.3,-100,-97,"CC50 at 24 h ([2]; read-out: HeLa-ACE2 uninfected cytotoxicity CC50 GeoMean): 27.4 µM; Emax [4, 31]: 100%; EC50 ([12]; Severe acute respiratory syndrome coronavirus 2, HeLa-ACE2): 0.787 µM; HeLa-ACE2 synergy score with remdesivi [δ] ([10]; combination with remdesivir, synergy score δ): -0.846; Emax ([13]; HeLa-ACE2, 10 h, curve plateau at infinite concentration, read-out: HeLa-ACE2 TOA cell count Sinf Average): 55%; EC50 ([13]; HeLa-ACE2, read-out: HeLa-ACE2 TOA cell count EC50 GeoMean): > 4.43 µM; EC50 ([5]; HeLa-ACE2, read-out: HeLa-ACE2 cell count EC50 GeoMean): > 6.87 µM; EC50 ([6]; Calu-3, read-out: Calu-3 cell count EC50 GeoMean): 5.55 µM; Cmax ([7]; read-out: Approx. Cmax, human oral, ref [33]-[49]): 5000 nM; CC50 at 48 h [8, 29]: 13.8 µM; CC50 at 48 h ([8]; Calu-3 uninfected cytotoxicity CC50 GeoMean): 13.8 µM"
COC(=O)[C@H]1[C@H]2C[C@@H]3c4[nH]c5cc(OC)ccc5c4CCN3C[C@H]2C[C@@H](OC(=O)c2cc(OC)c(OC)c(OC)c2)[C@@H]1OC [Reserpine],–,–,–,–,–,–,–,–,–,100,–,–,100,-100,100,33,-100,11.7,-100,-100,"EC50 ([1]; Severe acute respiratory syndrome coronavirus 2, HeLa-ACE2, detail block, read-out: HeLa-ACE2 CoV-2 EC50 GeoMean): > 5.51 µM; HeLa-ACE2 SI ([1]; selectivity index, uninfected HeLa-ACE2 CC50 / SARS-CoV-2 EC50): > 6.60; CC50 at 24 h [2, 32]: > 36.4 µM; Emax [4, 31]: 100%; EC50 [4, 33]: > 9.98 µM; Calu-3 SI ([4]; selectivity index, uninfected Calu-3 CC50 / Calu-3 SARS-CoV-2 EC50): 2.85; TOA:HeLa-ACE2 EC50 Ratio [12]: 0.542; EC50 [12, 34]: 2.99 µM; EC50 [18]: > 9.61 µM; EC50 [5, 35]: > 9.6 µM; EC50 [6, 36]: > 9.98 µM; CC50 at 48 h [8, 37]: > 28.5 µM"
C=Cc1cc(C(=O)Nc2ccc(C(=N)N)cc2)c(-c2ccc(C(=O)NCC3CC3)nc2C(=O)O)cc1OC [Avoralstat],> 9.6,> 9.59,> 40,> 39.8,88,0.387,0.387,–,> 9.59,91,0.57,14,–,–,–,–,–,–,–,–,"CC50 [11, 29]: > 30 µM; CC50 [11, 30]: > 29.9 µM; Cmax [7, 28]: 364 nM"
COc1ccc2cc1Oc1ccc(cc1)C[C@H]1c3cc(c(OC)cc3CCN1C)Oc1c(OC)c(OC)cc3c1[C@H](C2)N(C)CC3 [Hanfangchin A],–,–,–,–,–,–,–,100,–,–,–,–,100,-99,100,2.28,-105,3.6,-101,-100,"HeLa-ACE2 SI [1]: > 16.08; EC50 ([1]; Severe acute respiratory syndrome coronavirus 2, HeLa-ACE2, read-out: HeLa-ACE2 CoV-2 EC50 GeoMean, detail block): 1.18 µM; CC50 at 24 h [2, 32]: > 18.9 µM; Calu-3 SI [4]: 1.53; Emax [4]: 87%; EC50 [4, 33]: > 9.98 µM; TOA:HeLa-ACE2 EC50 Ratio [12]: 7.993; EC50 [12, 34]: > 9.41 µM; EC50 [18]: > 9.59 µM; EC50 [5, 35]: > 9.21 µM; EC50 [6, 36]: > 9.98 µM; CC50 at 48 h [8, 37]: 15.2 µM"
